Consider 27 compounds from patent US7115662B2, “Certain 5-alkyl-2-arylaminophenylacetic acids and derivatives” (Novartis AG, priority 1997, dated 2006).

Molecules are shown by their SMILES.

Regarding `Cc1ccc(Nc2c(F)c(F)cc(F)c2F)c(CC(=O)O)c1` [Example 1(b), 5-methyl-2-(2′,3′,5′,6′-tetrafluoroanilino)phenylacetic acid], the melting point lay within 153 to 156 °C. In turn, `Cc1ccc(Nc2c(Cl)cccc2Cl)c(CC(=O)O)c1` [Example 1(c), 5-methyl-2-(2′,6′-dichloroanilino)phenylacetic acid] showed a melting point of 168 to 170 °C. As for `Cc1cc(Cl)c(Nc2ccc(C)cc2CC(=O)O)c(Cl)c1` [Example 1(e), 5-methyl-2-(2′,6′-dichloro-4′-methylanilino)phenylacetic acid], the melting point fell in the range of 179 to 182 °C.

In the case of `Cc1ccc(Nc2c(C)cccc2Cl)c(CC(=O)O)c1` [Example 1(f), 5-methyl-2-(2′-chloro-6′-methylanilino)phenylacetic acid], the melting point lay in the range of 138 to 140 °C. On to `Cc1ccc(Nc2c(F)cc(Cl)cc2Cl)c(CC(=O)O)c1` [Example 1(h), 5-methyl-2-(2′-fluoro-4′,6′-dichloroanilino)phenylacetic acid], for which the melting point was 178 to 180 °C.

`Cc1ccc(Nc2c(C)cc(F)cc2Cl)c(CC(=O)O)c1` [Example 1(i), 5-methyl-2-(2′-chloro-4′-fluoro-6′-methylanilino)phenylacetic acid] came in with a melting point of 154 to 156 °C. Take `Cc1ccc(Nc2c(F)cc(O)cc2Cl)c(CC(=O)O)c1` [Example 1(j), 5-methyl-2-(2′-chloro-4′-hydroxy-6′-fluoroanilino)phenylacetic acid]: the melting point fell in the range of 180 to 182 °C. Compound `CCc1ccc(Nc2c(F)cccc2Cl)c(CC(=O)O)c1` [Example 2(a), 5-ethyl-2-(2′-fluoro-6′-chloroanilino)phenylacetic acid] gave a melting point of 147 to 148 °C. For the compound `CCc1ccc(Nc2c(C)cccc2Cl)c(CC(=O)O)c1` [Example 2(b), 5-ethyl-2-(2′-chloro-6′-methylanilino)phenylacetic acid], the melting point fell in the range of 125 to 126 °C. As for `CCc1ccc(Nc2c(F)ccc(F)c2F)c(CC(=O)O)c1` [Example 2(c), 5-ethyl-2-(2′,3′,6′-trifluoroanilino)phenylacetic acid], the melting point lay in the range of 138 to 140 °C. The same measure for `CCOc1c(F)c(F)c(Nc2ccc(CC)cc2CC(=O)O)c(F)c1F` [Example 2(d), 5-ethyl-2-(2′,3′,5′,6′-tetrafluoro-4′-ethoxyanilino)phenylacetic acid]: 131 to 132 °C; for `CCc1ccc(Nc2c(F)cc(F)cc2Cl)c(CC(=O)O)c1` [Example 2(e), 5-ethyl-2-(2′-chloro-4′,6′-difluoroanilino)phenylacetic acid]: 160 to 162 °C. The compound `CCc1ccc(Nc2c(F)cc(Cl)cc2Cl)c(CC(=O)O)c1` [Example 2(f), 5-ethyl-2-(2′,4′-dichloro-6′-fluoroanilino)phenylacetic acid] returned a melting point of 169 to 171 °C. The same measure for `CCc1ccc(Nc2c(C)cc(Cl)cc2Cl)c(CC(=O)O)c1` [Example 3(b), 5-ethyl-2-(2′,4′-dichloro-6′-methylanilino)phenylacetic acid]: 180 to 183 °C; for `CCc1ccc(Nc2c(Cl)cccc2Cl)c(CC(=O)O)c1` [Example 3(c), 5-ethyl-2-(2′,6′-dichloroanilino)phenylacetic acid]: 133 to 136 °C. The same measure for `CCc1ccc(Nc2c(C)cc(F)cc2F)c(CC(=O)O)c1` [Example 5(b), 5-ethyl-2-(2′,4′-difluoro-6′-methylanilino)phenylacetic acid]: 143 to 145 °C; for `CCc1ccc(Nc2c(C)cc(F)cc2Cl)c(CC(=O)O)c1` [Example 5(c), 5-ethyl-2-(2′-chloro-4′-fluoro-6′-methylanilino)phenylacetic acid]: 151 to 154 °C. For `CCc1ccc(Nc2c(C)cc(Cl)cc2Cl)c(CC(=O)OCC(=O)O)c1` [Example 6(b), carboxymethyl 5-ethyl-2-(2′,4′-dichloro-6′-methylanilino)phenylacetate], the melting point was in the range of 123 to 125 °C.

In turn, `CCc1ccc(Nc2c(Cl)cccc2Cl)c(CC(=O)OCC(=O)O)c1` [Example 6(c), carboxymethyl 5-ethyl-2-(2′,6′-dichloroanilino)phenylacetate] yielded a melting point of 124 to 126 °C. `CCc1ccc(Nc2c(F)cc(F)cc2Cl)c(CC(=O)OCC(=O)O)c1` [Example 6(d), carboxymethyl 5-ethyl-2-(2′,4′-difluoro-6′-chloroanilino)phenylacetate]: the melting point lay within 142 to 144 °C. Take `CCc1ccc(Nc2c(F)cc(Cl)cc2Cl)c(CC(=O)OCC(=O)O)c1` [Example 6(e), carboxymethyl 5-ethyl-2-(2′,4′-dichloro-6′-fluoroanilino)phenylacetate]: the melting point is 132 to 134 °C.

Compound `CCc1ccc(Nc2c(F)cccc2Cl)c(CC(=O)OCC(=O)O)c1` [Example 6(f), carboxymethyl 5-ethyl-2-(2′-chloro-6′-fluoroanilino)phenylacetate] had a melting point of 106 to 108 °C. Consider `Cc1ccc(Nc2c(F)cc(Cl)cc2Cl)c(CC(=O)OCC(=O)O)c1` [Example 6(g), carboxymethyl 5-methyl-2-(2′-fluoro-4′,6′-dichloroanilino)phenylacetate], for which the melting point is 148 to 150 °C. For `Cc1ccc(Nc2c(Cl)cccc2Cl)c(CC(=O)OCC(=O)O)c1` [Example 6(h), carboxymethyl 5-methyl-2-(2′,6′-dichloroanilino)phenylacetate], the melting point is 125 to 126 °C. The same measure for `Cc1ccc(Nc2c(F)cccc2Cl)c(CC(=O)OCC(=O)O)c1` [Example 6(i), carboxymethyl 5-methyl-2-(2′-chloro-6′-fluoroanilino)phenylacetate]: 96 to 98 °C; for `CCc1ccc(Nc2c(F)c(F)cc(F)c2F)c(CC(=O)OC(C)(C)C(=O)O)c1` [Example 8, 1-carboxy-1-methylethyl 5-ethyl-2-(2′,3′,5′,6′-tetrafluoroanilino)phenylacetate]: 104 to 108 °C; for `Cc1ccc(Nc2c(F)cccc2C(F)(F)F)c(CC(=O)O)c1` [Example 9(a), 5-methyl-2-(2′-fluoro-6′-trifluoromethylanilino)phenylacetic acid]: 155 to 156 °C.

One may read the melting point as the temperature of the solid-liquid transition.
